Results taken from ChEMBL document CHEMBL1129722, “Synthesis and biological activity of conformationally constrained sialyl Lewis X analogues with reduced carbohydrate character” (Bioorg Med Chem Lett, 1996).

target: T1, E-selectin (Homo sapiens, UniProt P16581); experiment: Compound was tested for its ability to inhibit the binding to recombinant human Selectin E immobilized on SPA beads of radiolabeled HL60 cell membrane containing sLex.; type: cell membranes, HL-60
T1 sequence (P16581 whole entry): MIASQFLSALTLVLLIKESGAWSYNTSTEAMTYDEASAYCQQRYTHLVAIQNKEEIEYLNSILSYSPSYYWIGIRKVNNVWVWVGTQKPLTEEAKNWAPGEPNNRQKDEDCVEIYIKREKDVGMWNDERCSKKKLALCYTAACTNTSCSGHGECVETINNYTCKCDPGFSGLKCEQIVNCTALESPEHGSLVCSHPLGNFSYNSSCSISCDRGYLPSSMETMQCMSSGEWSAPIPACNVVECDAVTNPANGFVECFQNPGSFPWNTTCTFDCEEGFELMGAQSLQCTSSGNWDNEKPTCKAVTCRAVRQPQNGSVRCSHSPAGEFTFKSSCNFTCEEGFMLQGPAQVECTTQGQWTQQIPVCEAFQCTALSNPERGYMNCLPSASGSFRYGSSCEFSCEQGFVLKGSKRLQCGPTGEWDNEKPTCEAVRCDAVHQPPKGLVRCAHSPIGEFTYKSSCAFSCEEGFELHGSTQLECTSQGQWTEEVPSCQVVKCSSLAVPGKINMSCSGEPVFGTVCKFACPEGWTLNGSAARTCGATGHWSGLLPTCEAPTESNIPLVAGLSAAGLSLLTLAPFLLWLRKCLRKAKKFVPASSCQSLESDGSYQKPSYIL

| Compound | IC50 |
| --- | --- |
| C[C@@H]1O[C@@H](OC2CCCCC2O[C@@H]2O[C@@H](CO)[C@H](O)[C@H](OCC(=O)O)[C@@H]2O)[C@@H](O)[C@@H](O)[C@@H]1O (stereo partly drawn) | 500 µM |
| CC(O[C@@H]1O[C@@H](C)[C@@H](O)[C@H](O)[C@@H]1O)C(C)O[C@@H]1O[C@@H](CO)[C@H](O)[C@H](OCC(=O)O)[C@@H]1O (stereo partly drawn) | 2100 µM |
| C[C@@H]1O[C@@H](O[C@@H]2CCCC[C@H]2O[C@@H]2O[C@@H](CO)[C@H](O)[C@H](OCC(=O)O)[C@@H]2O)[C@@H](O)[C@@H](O)[C@@H]1O | > 10000 µM |
